Measured values: US8993542B2, “Methods of treating viral infections” (priority 2008, dated 2015)
pIC50: −log10 of the molar value.

Assays:
HIV-1IIIB = experiment: Two-drug combination antiviral assay in CEM cells (CPE), MacSynergy II; assay type: cell-based; conditions: for Antagonism Volume, Result 1 / Antagonism Volume, Result 2 / Antagonism Volume, Result 3 / Mean Antagonism Volume (n = 3) / Mean Synergy Volume (n = 3) / Synergy Volume, Result 1 / Synergy Volume, Result 2 / Synergy Volume, Result 3: in combination with CMX157, CEM-SS cells, 95% confidence
HIV = experiment: microbe, parasite or virus in culture; assay type: cell-based

## Nc1nc(NC2CC2)c2ncn([C@H]3C=C[C@@H](CO)C3)c2n1 [ABC, abacavir]
HIV-1IIIB
  Antagonism Volume, Result 1: −35.8 nM^2 %, μM^2 % or nMμM %
  Antagonism Volume, Result 2: −2.32 nM^2 %, μM^2 % or nMμM %
  Antagonism Volume, Result 3: −12.1 nM^2 %, μM^2 % or nMμM %
  Mean Antagonism Volume (n = 3): −16.7 nM^2 %, μM^2 % or nMμM %
  Mean Synergy Volume (n = 3): 14.9 nM^2 %, μM^2 % or nMμM %
  Synergy Volume, Result 1: 25.1 nM^2 %, μM^2 % or nMμM %
  Synergy Volume, Result 2: 0 nM^2 %, μM^2 % or nMμM %
  Synergy Volume, Result 3: 19.7 nM^2 %, μM^2 % or nMμM %
HIV; Human immunodeficiency virus 1, PANEL 1, WT
  pIC50: 5.82
HIV; Human immunodeficiency virus 1, PANEL 2, WT
  pIC50: 5.78
HIV; Human immunodeficiency virus 1, PANEL 3, 6 TAMs, no 184
  pIC50: 5.10
HIV; Human immunodeficiency virus 1, PANEL 6, 6 TAMs + 184
  pIC50: 4.85
HIV; Human immunodeficiency virus 1, PANEL 7, 184V
  pIC50: 5.32
HIV; Human immunodeficiency virus 1, PANEL 9, 69ins, no 184
  pIC50: 4.49
HIV; Human immunodeficiency virus 1, PANEL 12, 69ins + 184
  pIC50: 4.33
HIV; Human immunodeficiency virus 1, PANEL 14, 65R, no 184
  pIC50: 5.24
HIV; Human immunodeficiency virus 1, PANEL 15, 65R + 184V
  pIC50: 4.93
HIV; Human immunodeficiency virus 1, PANEL 17, L74V
  pIC50: 5.47
HIV; Human immunodeficiency virus 1, PANEL 19, L74V + M184V
  pIC50: 5.03
HIV; Human immunodeficiency virus 1, PANEL 26, 151M, no 184
  pIC50: 4.46
HIV; Human immunodeficiency virus 1, PANEL 28, 151M + 184
  pIC50: < 4.28
HIV; Human immunodeficiency virus 1, PANEL 29, L74V − SDM
  pIC50: 5.48
HIV; Human immunodeficiency virus 1, PANEL 30, M184V − SDM
  pIC50: 5.33
HIV; Human immunodeficiency virus 1, PANEL 31, K65R − SDM
  pIC50: 5.34
HIV; Human immunodeficiency virus 1, PANEL 33, T215Y
  pIC50: 5.44
HIV; Human immunodeficiency virus 1, PANEL 34, T215Y + M184V
  pIC50: 5.12
HIV; Human immunodeficiency virus 1, PANEL 35, M41L + T215Y
  pIC50: 5.47
HIV; Human immunodeficiency virus 1, PANEL 37, M41L + T215Y + M184V
  pIC50: 5.02
HIV; Human immunodeficiency virus 1, PANEL 38, M41L + L210W + T215Y
  pIC50: 5.30
HIV; Human immunodeficiency virus 1, PANEL 39, M41L + L210W + T215Y
  pIC50: 5.38
HIV; Human immunodeficiency virus 1, PANEL 40, M41L + L210W + T215Y + M184V
  pIC50: 5.09
HIV; Human immunodeficiency virus 1, PANEL 41, M41L + L210W + T215Y + M184V
  pIC50: 5.05
HIV; Human immunodeficiency virus 1, PANEL 42, D67N + K70R
  pIC50: 5.61
HIV; Human immunodeficiency virus 1, PANEL 44, D67N + K70R + T215F + K219E + M184V
  pIC50: 5.11
HIV; Human immunodeficiency virus 1, PANEL 45, L210W + T215Y
  pIC50: 5.44
HIV; Human immunodeficiency virus 1, PANEL 46, D67N + K70E
  pIC50: 5.62
HIV; Human immunodeficiency virus 1, PANEL 47, D67N + K70E + M184V
  pIC50: 5.30
HIV; Human immunodeficiency virus 1, PANEL 48, K70E + M184V
  pIC50: 4.98
HIV; PANEL 1, WT
  IC50 Fold Change: 0.86
HIV; PANEL 2, WT
  IC50 Fold Change: 0.94
HIV; PANEL 3, 6 TAMs, no 184
  IC50 Fold Change: 4.43
HIV; PANEL 6, 6 TAMs + 184
  IC50 Fold Change: 7.91
HIV; PANEL 7, 184V
  IC50 Fold Change: 2.69
HIV; PANEL 9, 69ins, no 184
  IC50 Fold Change: 18.00
HIV; PANEL 12, 69ins + 184
  IC50 Fold Change: 26.00
HIV; PANEL 14, 65R, no 184
  IC50 Fold Change: 3.20
HIV; PANEL 15, 65R + 184V
  IC50 Fold Change: 6.64
HIV; PANEL 17, L74V
  IC50 Fold Change: 1.89
HIV; PANEL 19, L74V + M184V
  IC50 Fold Change: 5.21
HIV; PANEL 26, 151M, no 184
  IC50 Fold Change: 19.00
HIV; PANEL 28, 151M + 184
  IC50 Fold Change: >29.2959
HIV; PANEL 29, L74V − SDM
  IC50 Fold Change: 1.85
HIV; PANEL 30, M184V − SDM
  IC50 Fold Change: 2.64
HIV; PANEL 31, K65R − SDM
  IC50 Fold Change: 2.57
HIV; PANEL 33, T215Y
  IC50 Fold Change: 2.06
HIV; PANEL 34, T215Y + M184V
  IC50 Fold Change: 4.29
HIV; PANEL 35, M41L + T215Y
  IC50 Fold Change: 1.89
HIV; PANEL 37, M41L + T215Y + M184V
  IC50 Fold Change: 5.41
HIV; PANEL 38, M41L + L210W + T215Y
  IC50 Fold Change: 2.80
HIV; PANEL 39, M41L + L210W + T215Y
  IC50 Fold Change: 2.36
HIV; PANEL 40, M41L + L210W + T215Y + M184V
  IC50 Fold Change: 4.60
HIV; PANEL 41, M41L + L210W + T215Y + M184V
  IC50 Fold Change: 5.02
HIV; PANEL 42, D67N + K70R
  IC50 Fold Change: 1.40
HIV; PANEL 44, D67N + K70R + T215F + K219E + M184V
  IC50 Fold Change: 4.36
HIV; PANEL 45, L210W + T215Y
  IC50 Fold Change: 2.05
HIV; PANEL 46, D67N + K70E
  IC50 Fold Change: 1.36
HIV; PANEL 47, D67N + K70E + M184V
  IC50 Fold Change: 2.85
HIV; PANEL 48, K70E + M184V
  IC50 Fold Change: 5.88

## Cc1c(O)cccc1C(=O)N[C@@H](CSc1ccccc1)[C@H](O)CN1C[C@H]2CCCC[C@H]2C[C@H]1C(=O)NC(C)(C)C [Nelfinavir (NFV), nelfinavir]
HIV-1IIIB
  Antagonism Volume, Result 1: 0 nM^2 %, μM^2 % or nMμM %
  Antagonism Volume, Result 2: 0 nM^2 %, μM^2 % or nMμM %
  Antagonism Volume, Result 3: 0 nM^2 %, μM^2 % or nMμM %
  Mean Antagonism Volume (n = 3): 0 nM^2 %, μM^2 % or nMμM %
  Mean Synergy Volume (n = 3): 80.9 nM^2 %, μM^2 % or nMμM %
  Synergy Volume, Result 1: 32.1 nM^2 %, μM^2 % or nMμM %
  Synergy Volume, Result 2: 85.1 nM^2 %, μM^2 % or nMμM %
  Synergy Volume, Result 3: 125 nM^2 %, μM^2 % or nMμM %
HIV-1IIIB; two-drug combination (with CMX157; control d4T/RBV), CEM-SS cells
  Interpretation of Antiviral Results (MacSynergy): slightly synergistic

## Cc1ccnc2c1NC(=O)c1cccnc1N2C1CC1 [Nevirapine (NVP), nevirapine]
HIV-1IIIB
  Antagonism Volume, Result 1: 0 nM^2 %, μM^2 % or nMμM %
  Antagonism Volume, Result 2: 0 nM^2 %, μM^2 % or nMμM %
  Antagonism Volume, Result 3: 0/0 nM^2 %, μM^2 % or nMμM %
  Mean Antagonism Volume (n = 3): 0 nM^2 %, μM^2 % or nMμM %
  Mean Synergy Volume (n = 3): 38.5 nM^2 %, μM^2 % or nMμM %
  Synergy Volume, Result 1: 74.1 nM^2 %, μM^2 % or nMμM %
  Synergy Volume, Result 2: 41.5 nM^2 %, μM^2 % or nMμM %
  Synergy Volume, Result 3: 0/0 nM^2 %, μM^2 % or nMμM %

## Cc1nnc(C(=O)NC(C)(C)c2nc(C(=O)NCc3ccc(F)cc3)c(O)c(=O)n2C)o1 [Raltegravir (RAL), raltegravir]
HIV-1IIIB
  Antagonism Volume, Result 1: 0 nM^2 %, μM^2 % or nMμM %
  Antagonism Volume, Result 2: 0 nM^2 %, μM^2 % or nMμM %
  Antagonism Volume, Result 3: 0 nM^2 %, μM^2 % or nMμM %
  Mean Antagonism Volume (n = 3): 0 nM^2 %, μM^2 % or nMμM %
  Mean Synergy Volume (n = 3): 34.3 nM^2 %, μM^2 % or nMμM %
  Synergy Volume, Result 1: 18.4 nM^2 %, μM^2 % or nMμM %
  Synergy Volume, Result 2: 1.92 nM^2 %, μM^2 % or nMμM %
  Synergy Volume, Result 3: 82.6 nM^2 %, μM^2 % or nMμM %
